Reference: US3931204A, “Thieno[3,4-d]pyrimidines” (U.C.B. Societe Anonyme, priority 1974, dated 1976)

Experiments:
[1] = Intravenous lethal dose (LD50) in rat; conditions: in vivo, solvent: A propylene glycol + water, B polyethylene glycol + ethanol, C, F, G water, D glycofurol
Experimental: (§1) The intravenously administered lethal doses (LD50) were determined in rat and mouse. For compounds A to G mentioned above, the recorded results, expressed in mg of compound per kg of animal body weight, are given in the following Table: […]

[2] = test system: dog anaesthetized with nembutal; experiment: Blood flow in thoracic aorta (cardiac output), vertebral artery (cerebral flow) and femoral artery (musculocutaneous peripheral flow), electromagnetic flow measurement, anaesthetized dog; type: in vivo; conditions: 2 mg/kg animal body weight, intravenous; for increase in the femoral flow: femoral artery; for increase in the cardiac flow: thoracic aorta; for increase in the cerebral flow (in words): vertebral artery; for duration of the increase of the cerebral circulation: increase by 30 to 40%
Experimental: The measurements were carried out by means of periarterial probes according to the principle of electromagnetic flow measurement. The general experimental conditions have already been described in the Literature (D. WELLENS and E. WAUTERS, Arch.Int.Pharmacod.171/1,(1968), 246). The medicament was administered by intravenous route.
The administration of compounds according to the invention, namely the 2-chloro-4-isopropylamino-thieno[3,4-d]pyrimidine monohydrochloride (compound A), the 2-chloro-4-morpholino-thieno[3,4-d]pyrimidine monohydrochloride (compound B), the 2-chloro-4-(3-methyl-morpholino)-thieno[3,4-d]pyrimidine monohydrochloride (compound C), the 2-n-propylamino-4-isopropylamino-thieno[3,4-d]-pyrimidine monomaleate (compound D) and the 2-n-propyl-4-isopropylamino-thieno[3,4-d]pyrimidine mono-maleate (compound E) brought about the following effects under these conditions: […]

[3] = Intravenous lethal dose (LD50) in mouse; conditions: in vivo, solvent: C water, D glycofurol, E polyethylene glycol
Experimental: as §1

[4] = test system: rabbit, in morphinic respiratory depression; experiment: Respiratory analeptic action in morphinic respiratory depression; type: in vivo; conditions: 2,5 mg of free base/kg animal body weight

In the case of CC(C)Nc1nc(Cl)nc2cscc12.Cl [A, 2-chloro-4-isopropylamino-thieno[3,4-d]pyrimidine monohydrochloride], the LD50 [1] is reported as 65 mg/kg, the “increase in the femoral flow” value [2] is reported as “appreciable increase” and the “increase in the cardiac flow” value [2] is reported as “appreciable increase”. The “increase in the cerebral flow (in words)” value [2] was “appreciable increase”.

With Cl.Clc1nc(N2CCOCC2)c2cscc2n1 [B, 2-chloro-4-morpholino-thieno[3,4-d]pyrimidine monohydrochloride] the LD50 [1] was 130 mg/kg, the “increase in the femoral flow” value [2] was “appreciable increase” and the “increase in the cardiac flow” value [2] was “appreciable increase”. For the same compound, the “increase in the cerebral flow (in words)” value [2] was “appreciable increase”.

For CC1COCCN1c1nc(Cl)nc2cscc12.Cl (stereo not shown) [C, 2-chloro-4-(3-methyl-morpholino)-thieno[3,4-d]pyrimidine monohydrochloride], the LD50 [1] was 109 mg/kg, the “increase in the femoral flow” value [2] was “marked increase” and the “increase in the cardiac flow” value [2] was “appreciable increase”. For the same compound, the “increase in the cerebral flow (in words)” value [2] was “marked increase”, the “duration of the increase of the cerebral circulation” value [2] was “at least 40 minutes” and the LD50 [3] was 117 mg/kg.

For CCCNc1nc(NC(C)C)c2cscc2n1.O=C(O)/C=C\C(=O)O [D, 2-n-propylamino-4-isopropylamino-thieno[3,4-d]-pyrimidine monomaleate], the LD50 [1] was 25.5 mg/kg, the “increase in the femoral flow” value [2] was “marked increase” and the “increase in the cardiac flow” value [2] was “appreciable increase”. For the same compound, the “increase in the cerebral flow (in words)” value [2] was “marked increase”, the “duration of the increase of the cerebral circulation” value [2] was “at least 40 minutes” and the LD50 [3] was 21 mg/kg.

With CCCc1nc(NC(C)C)c2cscc2n1.O=C(O)/C=C\C(=O)O [E, 2-n-propyl-4-isopropylamino-thieno[3,4-d]pyrimidine mono-maleate] the “increase in the femoral flow” value [2] was “appreciable increase”, the “increase in the cardiac flow” value [2] was “appreciable increase” and the “increase in the cerebral flow (in words)” value [2] was “appreciable increase”. It also gave an LD50 [3] of 23 mg/kg.

In the case of CCOc1nc(NC(C)C)c2cscc2n1.Cl [F, 2-ethoxy-4-isopropylamino-thieno[3,4-d]pyrimidine monohydrochloride], the LD50 [1] is reported as 49 mg/kg and the “respiratory analeptic effect relative to diethylnicotinamide” value [4] is reported as “equivalent to that produced by a six times higher dose of diethylnicotinamide”.

For CCCNc1nc(OCC)nc2cscc12.Cl [G, 2-ethoxy-4-n-propylamino-thieno[3,4-d]pyrimidine monohydrochloride], the LD50 [1] was 42 mg/kg and the “respiratory analeptic effect relative to diethylnicotinamide” value [4] was “equivalent to that produced by a six times higher dose of diethylnicotinamide”.
